Measured values published in ChEMBL document CHEMBL5260795, “Antifungal potential of marine natural products” (Eur J Med Chem, 2017).
≈ marks a conversion by molar mass, not a printed value.

How the values were obtained:
[1] = test system: Candida albicans; experiment: Antifungal activity against Candida albicans; assay type: functional, organism-based
[2] = test system: Trichophyton rubrum; experiment: Antimicrobial activity against Trichophyton rubrum; assay type: functional, organism-based
[3] = test system: Nakaseomyces glabratus; experiment: Antifungal activity against fluconazole-resistant Candida glabrata by CLSI protocol based macrobroth dilution method; assay type: functional
[4] = test system: Pichia kudriavzevii; experiment: Antifungal activity against fluconazole-resistant Candida krusei by CLSI protocol based macrobroth dilution method; assay type: functional
[5] = test system: Aspergillus fumigatus; experiment: Antimicrobial activity against Aspergillus fumigatus; assay type: functional
[6] = test system: Candida albicans; experiment: Antimicrobial activity against Candida albicans assessed as reduction of microbial microbial growth; assay type: functional
[7] = test system: Candida tropicalis; experiment: Antifungal activity against Candida tropicalis; assay type: functional
[8] = test system: Fusarium oxysporum; experiment: Antifungal activity against Fusarium oxysporum; assay type: functional
[9] = test system: Aspergillus niger; experiment: Antifungal activity against Aspergillus niger; assay type: functional
[10] = test system: Cryptococcus neoformans; experiment: Antifungal activity against Cryptococcus neoformans var. grubii assessed as fungal growth inhibition; assay type: functional
[11] = test system: Candida albicans; experiment: Antifungal activity against amphotericin-B-resistant Candida albicans; assay type: functional, organism-based
[12] = test system: Candida albicans; experiment: Antifungal activity against wild type Candida albicans; assay type: functional, organism-based
[13] = test system: Lindra thalassiae; experiment: Antifungal activity against Lindra thalassiae assessed as lethal dose; assay type: functional; settings: Lindriella thalassiae; read-out: LD50 (the source's name)
[14] = test system: Globisporangium ultimum; experiment: Antifungal activity against Pythium ultimum IFO32210 assessed as inhibition of fungal growth; assay type: functional
[15] = test system: Saprolegnia parasitica; experiment: Antifungal activity against Saprolegnia parasitica IFO8978 assessed as inhibition of fungal growth; assay type: functional
[16] = test system: Botrytis cinerea; experiment: Antifungal activity against Botrytis cinerea AJ 117140 assessed as inhibition of fungal growth; assay type: functional
[17] = test system: Rhodotorula glutinis; experiment: Antimicrobial activity against Rhodotorula glutinis; assay type: functional
[18] = test system: Candida albicans; experiment: Antimicrobial activity against Candida albicans; assay type: functional
[19] = test system: Saccharomyces cerevisiae; experiment: Antimicrobial activity against Saccharomyces cerevisiae; assay type: functional
[20] = test system: Fusarium graminearum; experiment: Antimicrobial activity against Fusarium graminearum; assay type: functional
[21] = test system: Aspergillus flavus; experiment: Antifungal activity against Aspergillus flavus assessed as inhibition of fungal growth; assay type: functional, organism-based
[22] = test system: Aspergillus; experiment: Antimicrobial activity against Aspergillus; assay type: functional

SMILES: C=C[C@@H]1C[C@H](C)C[C@H](C)[C@H]1c1c(O)ccn(O)c1=O
- IC50 [1]: 6.9 µg/mL (≈ 26.2 µM)
- IC50 [2]: 1.07 µg/mL (≈ 4.06 µM)

SMILES: COc1cc(/C=N/O)nc(-c2ccccn2)c1 [CAERULOMYCIN A]
- MIC [3]: 0.39 µg/mL (≈ 1.7 µM)
- MIC [4]: 0.39 µg/mL (≈ 1.7 µM)

SMILES: COc1ccc(/C=C/CCCC[C@H](C)[C@H](O)[C@@H](O)[C@H]2NC(=O)C[C@@H](O)CNC(=O)CNC(=O)[C@@H](Cc3c(C(=O)O)[nH]c4ccccc34)NC(=O)CN(C)C(=O)C[C@H]3NC(=O)C[C@H]3NC(=O)[C@H]2O)cc1
- MIC [5]: 0.6 µg/mL (≈ 0.623 µM)

SMILES: C/C(=C\[C@@H](O)C/C(C)=C/CCc1ccoc1)C/C=C/c1ccoc1
- MIC [6]: 0.25 µg/mL
- MIC [7]: 2 µg/mL (≈ 6.13 µM)
- MIC [8]: 1 µg/mL (≈ 3.06 µM)
- MIC [9]: 2 µg/mL (≈ 6.13 µM)

SMILES: COC(=O)CCC[C@@H]1CC[C@@H](C#C/C=C/CCCCCC/C=C/Br)O1
- MIC [10]: 4 µg/mL (≈ 9.72 µM)

SMILES: CC(/C=C/c1ccccc1)=C\[C@H](O)[C@@H]1CC(=O)N[C@@H](CO)C(=O)NC2Cn3cc([n+]([C@@H]4O[C@H](CO)[C@H](O)[C@H](O)[C@H]4O)c3)CC(NC(=O)CCC[C@@H](C(=O)[O-])NC(=O)[C@@H](O)CNC(=O)[C@H](Cc3ccc(Br)cc3)NC(=O)[C@H]([C@@H](O)C(N)=O)NC(=O)[C@H](CC(N)=O)NC2=O)C(=O)N[C@@H]([C@H](C)O)C(=O)N[C@@H](CO)C(=O)N[C@@H](Cc2ccccc2)C(=O)N1 (some centres undefined)
- IC50 [11]: 3.49 µg/mL (≈ 2.01 µM)
- IC50 [12]: 7.84 µg/mL (≈ 4.52 µM)

SMILES: CC(C)CC(=O)C[C@@H](C)[C@H]1CC[C@@]2(C)[C@H]3CC[C@H]4[C@](CO)(COS(=O)(=O)[O-])C(=O)CC[C@@]45C[C@@]35CC[C@]12C.[Na+]
- LC50 [13]: 0.94 µg/mL

SMILES: COc1ccc(/C=C/CCCC[C@H](C)[C@H](O)[C@@H](O)[C@H]2NC(=O)C[C@@H](O)CNC(=O)CNC(=O)[C@@H](Cc3c(C(=O)O)[nH]c4ccccc34)NC(=O)CN(C)C(=O)C[C@H]3NC(=O)[C@H](O)[C@H]3NC(=O)[C@H]2O)cc1
- MIC [5]: 1.3 µg/mL (≈ 1.33 µM)

SMILES: C=CC1OC1(C)CC(C)/C(C)=C/C=C(C)\C=C(OC)\C(=C/C(=O)OC)OC (centres undefined)
- MIC [14]: 0.4 µg/mL (≈ 1.06 µM)
- MIC [15]: 0.1 µg/mL (≈ 0.266 µM)
- MIC [16]: 3.1 µg/mL (≈ 8.23 µM)

SMILES: CO[C@H]1C(=O)N[C@]2(O)CC(=O)N(C)CC(=O)N[C@H](Cc3c[nH]c4cc(Cl)ccc34)C(=O)NCC(=O)NC[C@H](O)CC(=O)N[C@H]([C@@H](O)[C@@H](O)C/C=C/C=C/c3ccccc3)[C@@H](O)C(=O)N[C@@H]12
- MIC [17]: 0.6 µg/mL (≈ 0.648 µM)
- MIC [18]: 3.1 µg/mL (≈ 3.35 µM)
- MIC [19]: 1.6 µg/mL (≈ 1.73 µM)

SMILES: CC(C)C1=C2N=C3OC=CC=C[C@@]34OC[C@H]3O[C@@]4(OC3(C)C)N2[C@@H](Cc2ccccc2)C(=O)N1
- MIC [20]: 4 µg/mL (≈ 8.63 µM)

SMILES: CC[C@H](C)/C=C(C)/C=C/C1=CC2=C(Cl)C(=O)[C@@](C)(OC(C)=O)C(=O)C2=CO1
- IC50 [21]: 3.39 µg/mL (≈ 8.67 µM)

SMILES: COc1c(Br)cc(Br)cc1Oc1c(O)cc(Br)cc1Br
- MIC [22]: 1.95 µg/mL (≈ 3.67 µM)

SMILES: CC(=O)OC[C@@]1(COS(=O)(=O)[O-])C(=O)CC[C@]23C[C@]24CC[C@]2(C)[C@@H]([C@H](C)CC(=O)CC(C)C)CC[C@@]2(C)[C@H]4CC[C@@H]13.[Na+]
- LC50 [13]: 0.03 µg/mL
